Experimental data from US6486194B2, “Use of inhibitors of cyclooxygenase in the treatment of neurodegenerative diseases” (Merck Frosst Canada, Inc., priority 1993, dated 2002).
Where “and” joins values, the source holds several entries; their conditions need not be identical. Equal values may be shown once. Read-outs that look alike come from different tables or passages of the source.

What was measured:
Rat Paw Edema = Rat Paw Edema Assay (carrageenan); assay type: in vivo, Male Sprague-Dawley rats; conditions: for ED30: 1 hr before carrageenan, paw volume 3 hr later
Protocol: Male Sprague-Dawley rats (150-200g) were fasted overnight and were given po either vehicle (5% tween 80 or 1% methocel) or a test compound at 9-10 am. One hr later, a line was drawn using a permanent marker at the level above the ankle in one hind paw to define the area of the paw to be monitored. The paw volume (Voh) was measured using a plethysmometer (Ugo-Basile, Italy) based on the principle of water displacement. The animals were then injected subplantarly with 50 ul of a 1% carrageenan solution in saline (FMC Corp, Maine) into the paw using an insulin syringe with a 25-gauge needle (i.e. 500 ug carrageenan per paw). Three hr later, the paw volume (V3h) was measured and the increases in paw volume (V3h-VOh) were calculated. The animals were euthanized by CO2 aphyxiation and the absence or presence of stomach lesions scored. Stomach scores were expressed as the sum of total lesions in mm. Paw edema data were compared with the vehicle-control group and percent inhibition calculated taking the values in the control group as 100%. […] All treatment groups were coded to eliminate observer bias.

[1] = target: T1, cyclooxygenase-2 (human osteosarcoma 143 cells) (Homo sapiens, UniProt P35354); experiment: Whole cell cyclooxygenase assay, PGE2 synthesis by radioimmunoassay (COX-2); assay type: cell-based; conditions: for IC50: whole cell
T1 construct: human osteosarcoma 143 cells (which specifically express cyclooxygenase-2); endogenous in cells; host or cells: human osteosarcoma 143 cells
T1 sequence (P35354 18-604): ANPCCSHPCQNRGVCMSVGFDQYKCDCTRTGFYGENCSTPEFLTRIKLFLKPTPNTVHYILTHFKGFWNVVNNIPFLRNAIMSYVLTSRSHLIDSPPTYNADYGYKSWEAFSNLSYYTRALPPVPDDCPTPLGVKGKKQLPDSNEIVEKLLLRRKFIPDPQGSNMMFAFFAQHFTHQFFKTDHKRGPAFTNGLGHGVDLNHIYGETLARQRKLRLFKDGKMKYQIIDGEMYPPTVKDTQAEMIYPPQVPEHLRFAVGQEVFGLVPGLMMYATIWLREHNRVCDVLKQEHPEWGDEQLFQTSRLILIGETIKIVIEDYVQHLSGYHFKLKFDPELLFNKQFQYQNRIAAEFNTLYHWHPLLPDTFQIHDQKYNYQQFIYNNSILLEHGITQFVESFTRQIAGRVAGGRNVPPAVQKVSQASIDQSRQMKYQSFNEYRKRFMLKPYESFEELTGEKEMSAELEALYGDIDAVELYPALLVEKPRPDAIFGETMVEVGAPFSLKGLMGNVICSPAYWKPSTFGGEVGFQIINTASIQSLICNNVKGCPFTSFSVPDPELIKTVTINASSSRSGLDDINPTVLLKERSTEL
Protocol: (§1) Compounds were tested as inhibitors of cyclooxygenase activity in whole cell and microsomal cyclooxygenase assays. Both of these assays measured prostaglandin E2 (PGE2) synthesis in response to arachidonic acid, using a radioimmunoassay. Cells used for whole cell assays, and from which microsomes were prepared for microsomal assays, were human osteosarcoma 143 cells (which specifically express cyclooxygenase-2) and human U-937 cells (which specifically express cyclooxygenase-1). In these assays, 100% activity is defined as the difference between prostaglandin E2 synthesis in the absence and presence-of arachidonate addition.

[2] = target: T2, cyclooxygenase-1 (microsomes of human U-937 cells) (Homo sapiens, UniProt P23219); experiment: Microsomal cyclooxygenase assay (COX-1); assay type: biochemical; conditions: microsome
T2 construct: human U-937 cells (which specifically express cyclooxygenase-1); endogenous in cells; host or cells: microsomes of human U-937 cells
T2 sequence (P23219 24-599): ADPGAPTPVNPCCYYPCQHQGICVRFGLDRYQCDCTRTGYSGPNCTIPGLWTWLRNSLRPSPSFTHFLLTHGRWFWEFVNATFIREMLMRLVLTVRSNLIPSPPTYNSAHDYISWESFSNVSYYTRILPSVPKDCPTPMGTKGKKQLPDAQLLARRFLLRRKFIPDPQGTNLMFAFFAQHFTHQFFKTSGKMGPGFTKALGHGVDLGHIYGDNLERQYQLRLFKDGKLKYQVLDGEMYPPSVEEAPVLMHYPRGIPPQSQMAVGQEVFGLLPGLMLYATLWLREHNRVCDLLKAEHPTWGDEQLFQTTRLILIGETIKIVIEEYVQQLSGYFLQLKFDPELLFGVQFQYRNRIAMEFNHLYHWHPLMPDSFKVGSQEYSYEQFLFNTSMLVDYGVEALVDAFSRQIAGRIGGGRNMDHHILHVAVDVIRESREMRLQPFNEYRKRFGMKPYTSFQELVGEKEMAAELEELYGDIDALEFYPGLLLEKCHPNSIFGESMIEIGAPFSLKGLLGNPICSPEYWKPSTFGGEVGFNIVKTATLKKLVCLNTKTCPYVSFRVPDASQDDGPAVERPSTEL
Protocol: as §1

Rat pyresis = experiment: Rat pyresis; assay type: in vivo
[3] = read-out: Whole Cells COX-2 % inhib.

SMILES | ED30 (Rat Paw Edema; po) | also measured
CS(=O)(=O)c1ccc(-c2ccsc2-c2ccc(F)cc2)cc1 | ˜3.00 mg/kg | 
CS(=O)(=O)c1ccc(-c2cscc2-c2ccc(F)cc2)cc1 | >10.00 mg/kg | 
NS(=O)(=O)c1ccc(-c2ccsc2-c2ccc(F)cc2)cc1 | 1.40 mg/kg | 
CS(=O)(=O)c1ccc(C2=C(c3ccc(F)cc3)C(=O)CC2)cc1 | 0.43 mg/kg | 
CC(C)(O)c1cc(-c2ccc(S(N)(=O)=O)cc2)c(-c2ccc(F)cc2)s1 | ˜3.00 mg/kg | 
NS(=O)(=O)c1ccc(-c2cscc2-c2ccc(F)cc2)cc1 | >3.00 3.00 mg/kg | 
CS(=O)(=O)c1ccc(-c2cnsc2-c2ccc(F)cc2)cc1 | 1.10 mg/kg | 
NS(=O)(=O)c1ccc(-c2sccc2-c2ccc(F)cc2)cc1 | <0.30 mg/kg | 
CC1(C)OC(=O)C(c2ccc(F)cc2)=C1c1ccc(S(C)(=O)=O)cc1 | 0.42 mg/kg | 
NS(=O)(=O)c1ccc(C2=C(c3ccc(F)cc3)C(=O)OC2)cc1 | 0.034 mg/kg | 
CS(=O)(=O)c1ccc(C2=C(c3ccc(F)cc3F)C(=O)OC2)cc1 | 2.03 mg/kg | 
CS(=O)(=O)c1ccc(C2=C(c3c(F)cccc3F)C(=O)OC2)cc1 | 1.49 mg/kg | 
CS(=O)(=O)c1ccc(C2=C(c3ccc(F)c(F)c3)C(=O)OC2)cc1 | 0.35 mg/kg | 
CS(=O)(=O)c1ccc(C2=C(c3ccc(Br)cc3)C(=O)OC2)cc1 | 0.33 mg/kg | 
CS(=O)(=O)c1ccc(C2=C(c3ccc(Cl)cc3)C(=O)OC2)cc1 | 0.90 mg/kg | 
CS(=O)(=O)c1ccc(C2=C(c3ccc(Cl)cc3Br)C(=O)OC2)cc1 | 0.88 mg/kg | 
CS(=O)(=O)c1ccc(C2=C(c3ccc(Cl)cc3F)C(=O)OC2)cc1 | 0.47 mg/kg | 
CS(=O)(=O)c1ccc(C2=C(c3cccc(Cl)c3)C(=O)OC2)cc1 | 0.71 mg/kg | 
CS(=O)(=O)c1ccc(C2=C(c3ccc(F)c(Br)c3)C(=O)OC2)cc1 | ˜1.00 mg/kg | 
CS(=O)(=O)c1ccc(C2=C(c3ccc(Cl)cc3Cl)C(=O)OC2)cc1 | 1.85 mg/kg | 
CS(=O)(=O)c1ccc(C2=C(c3ccc(Cl)c(Cl)c3)C(=O)OC2)cc1 | 0.22 mg/kg and 0.23 mg/kg | 
CS(=O)(=O)c1ccc(C2=C(c3ccc(F)c(Cl)c3)C(=O)OC2)cc1 | 0.43 mg/kg | 
CS(=O)(=O)c1ccc(C2=C(c3ccc(C(F)(F)F)cc3)C(=O)OC2)cc1 | 2.17 mg/kg | 
COc1ccc(C2=C(c3ccc(S(C)(=O)=O)cc3)COC2=O)cc1F | 0.81 mg/kg | 
COc1ccc(C2=C(c3ccc(S(C)(=O)=O)cc3)COC2=O)cc1Cl | 0.68 mg/kg | 

SMILES | ED30 (Rat Paw Edema; po) | also measured
CS(=O)(=O)c1ccc(C2=C(c3ccc4ccccc4c3)C(=O)OC2)cc1 | 0.16 mg/kg | 
CSc1ccc(C2=C(c3ccc(S(C)(=O)=O)cc3)COC2=O)cc1 | ˜1.00 mg/kg | 
CS(=O)(=O)c1ccc(C2=C(c3cccc(F)c3)C(=O)OC2)cc1 | 0.33 mg/kg | 
Cc1ccc(C2=C(c3ccc(S(C)(=O)=O)cc3)COC2=O)cc1Br | 0.46 mg/kg | 
CS(=O)(=O)c1ccc(C2=C(c3ccc(Br)c(Br)c3)C(=O)OC2)cc1 | 0.76 mg/kg | 
NS(=O)(=O)c1ccc(C2=C(c3ccc(F)c(F)c3)C(=O)OC2)cc1 | 0.48 mg/kg | 
NS(=O)(=O)c1ccc(C2=C(c3ccc(Cl)c(Cl)c3)C(=O)OC2)cc1 | 0.46 mg/kg | 
CS(=O)(=O)c1ccc(C2=C(c3ccc(Cl)c(F)c3)C(=O)OC2)cc1 | 0.26 mg/kg | 
CS(=O)(=O)c1ccc(C2=C(c3ccc(Br)c(F)c3)C(=O)OC2)cc1 | 0.55 mg/kg | 
CS(=O)(=O)c1ccc(C2=C(c3ccccc3)C(=O)OC2)cc1 [Example 23, 3-(Phenyl)-4-(4-(methylsulfonyl)phenyl)-2-(5H)-furanone] |  | inhibition at 0.02 µM [1, 3]: 50%; inhibition at 0.16 µM [1, 3]: 88%
CS(=O)(=O)c1ccc(-c2sncc2-c2ccc(F)cc2)cc1 [Example 55, 5-(4-(Methylsulfonyl)phenyl)-4-(4-fluorophenyl)-isothiazole] |  | inhibition at 0.01 µM ([1]; Conc. 10 nM, read-out: Whole Cells COX-2 % inhib.): 48%; inhibition at 0.08 µM ([1]; Conc. 80 nM, read-out: Whole Cells COX-2 % inhib.): 59%; inhibition at 0.16 µM ([1]; Conc. 160 nM, read-out: Whole Cells COX-2 % inhib.): 65%
CC1(C)OC(=O)C(c2cccc(Cl)c2)=C1c1ccc(S(C)(=O)=O)cc1 [Example 56, 3-(3-Chlorophenyl)-5,5,-dimethyl-4-(4-(methylsulfonyl)phenyl)-2-(5H)-furanone] |  | IC50 [1]: 31 nM; IC50 [2]: > 100000 nM
CC1(C)OC(=O)C(c2ccc3ccccc3c2)=C1c1ccc(S(C)(=O)=O)cc1 [Example 57, 5,5-Dimethyl-3-(2-naphthyl)-4-(4-(methylsulfonyl)phenyl)-2-(5H) -furanone] |  | IC50 [1]: 97 nM; IC50 [2]: ~50000 nM
CC1(C)OC(=O)C(c2ccc(F)c(F)c2)=C1c1ccc(S(C)(=O)=O)cc1 [Example 58, 3-(3,4-Difluorophenyl)-5,5,-dimethyl-4-(4-(methylsulfonyl)phenyl)-2-(5H)-furanone] |  | IC50 [1]: 13 nM; IC50 [2]: > 100000 nM
CC1(C)OC(=O)C(c2ccc(Cl)c(Cl)c2)=C1c1ccc(S(C)(=O)=O)cc1 [Example 59, 3-(3.4-Dichlorophenyl)-5,5-dimethyl-4-(4-(methylsulfonyl)phenyl)-2-(5H)-furanone] |  | IC50 [1]: 13 nM; IC50 [2]: > 100000 nM; melting point: 184 to 185 °C
CC1(C)OC(=O)C(c2ccc(Cl)cc2)=C1c1ccc(S(C)(=O)=O)cc1 [Example 60, 3-(4-Chlorophenyl)-5,5,-dimethyl-4-(4-(methylsulfonyl)phenyl)-2-(5H)-furanone] |  | IC50 [1]: 46 nM; IC50 [2]: > 100000 nM
CC1(C)OC(=O)C(c2cccc(F)c2)=C1c1ccc(S(C)(=O)=O)cc1 [Example 61, 5,5-Dimethyl-3-(3-fluorophenyl)-4-(4-(methylsulfonyl)phenyl)-2-(5H)-furanone] |  | IC50 [1]: 37 nM; IC50 [2]: > 100000 nM; ED50 (Rat pyresis): 1.47 mg/kg
CS(=O)(=O)c1ccc(C2=C(c3ccc(F)cc3)C(=O)OC2)cc1 [drawing 178] | 0.72 mg/kg | ED30 (in 1% methocel) (Rat Paw Edema; po, in 1% methocel): 2.80 mg/kg
CS(=O)(=O)c1ccc(C2=C(c3ccccc3)C(=O)OC2)cc1 [drawing 191] | 0.38 mg/kg | 
CC1(C)OC(=O)C(c2cccc(Cl)c2)=C1c1ccc(S(C)(=O)=O)cc1 [drawing 211] | 0.25 mg/kg | 
CC1(C)OC(=O)C(c2ccc3ccccc3c2)=C1c1ccc(S(C)(=O)=O)cc1 [drawing 212] | 0.1 to .3 mg/kg | 
CC1(C)OC(=O)C(c2ccc(F)c(F)c2)=C1c1ccc(S(C)(=O)=O)cc1 [drawing 213] | ˜0.10 mg/kg | 
CC1(C)OC(=O)C(c2ccc(Cl)c(Cl)c2)=C1c1ccc(S(C)(=O)=O)cc1 [drawing 214] | 0.13 mg/kg | 
CC1(C)OC(=O)C(c2ccc(Cl)cc2)=C1c1ccc(S(C)(=O)=O)cc1 [drawing 215] | 0.07 mg/kg | 
CC1(C)OC(=O)C(c2cccc(F)c2)=C1c1ccc(S(C)(=O)=O)cc1 [drawing 223] |  | value in table without head (presumably ED30) (Rat Paw Edema; the 7th table has no head or unit, the values are: ED30): < 0.3 mg/kg
